# Measured values: patent US12458605B2, “Lipid nanoparticle” (National University Corporation Hokkaido University, priority 2020, dated 2025)
# Tests used:
# F7 = experiment: In vivo F7 knockdown, plasma F7 enzyme activity (BIOPHEN FVII), Balb/c mice; settings: for knockdown activity, compared with MC3: F7siRNA-loaded LNP, versus LNP comprising MC3; for F7 enzyme activity (Ratio using MC3 as 1): i.v. 0.025 mg siRNA/kg, plasma at 24 hours, relative plasma F7 activity of MC3 LNP as 1
# Procedure, shortened: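 Female Balb/c mice, 5 weeks old, received F7 siRNA lipid nanoparticles i.v. at 0.025 mg siRNA/kg; plasma F7 activity measured chromogenically (BIOPHEN FVII) 24 h later. Values are % of untreated mice, also expressed as a ratio to MC3-containing nanoparticles set at 1.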
# [1] = siRNA/mRNA encapsulation rate by Ribogreen reagent (section IV); assay type: physicochemical; settings: for % siRNA encapsulation: F7siRNA-loaded LNP, 50:10:38.5:1.5, N/P ratio 6; for % mRNA encapsulation: FlucmRNA-loaded LNP, 50:10:38.5:1.5
# Procedure, shortened: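 LNPs diluted in TE buffer to 8 μg/mL nucleic acid for surface RNA, or to 1.2 μg/mL with 1% Triton X-100 for total RNA. RiboGreen fluorescence (ex 485/em 528 nm) quantified against a Triton-containing standard curve (0-2.5 μg/mL). Encapsulation % = (total − surface)/total × 100.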
# liver = experiment: In vivo Fluc activity of FlucmRNA-loaded LNP by in vivo imaging, liver; settings: Balb/c mice, 6 hours; for Fluc activity in the liver, compared with CL15F6: 0.1 mg mRNA/kg, versus LNP comprising CL15F6 (Table 7); for Fluc Activity in liver: FlucmRNA-loaded LNP i.v. 0.1 mg mRNA/kg
# Procedure, shortened: (§1)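 Female Balb/c mice, 7 weeks old, received LNP i.v. at 0.1 mg mRNA/kg. At 6 h, luciferin was given via tail vein at 1.5 mg per mouse, and liver and spleen luminescence was imaged as Avg Radiance [p/s/cm2/sr] near 560 nm.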
# [2] = Storage stability of FlucmRNA-loaded LNP at −80, 5, 25 and 40° C.; assay type: physicochemical; settings: for period for which quality remained good, −80° C.: maximum storage period 1 week; for period for which quality remained good, 5° C. / period for which quality remained good, 25° C. / period for which quality remained good, 40° C. (weeks): maximum storage period 5 weeks
# Procedure, shortened: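 FlucmRNA-loaded LNPs held at −80, 5, 25 or 40° C; at each time point size, PDI and encapsulation measured. Quality deemed maintained while size stays within ±20 nm of preparation day, PDI ≤0.2 and encapsulation ≥80%; value is the period meeting all three.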
# spleen = experiment: In vivo Fluc activity of FlucmRNA-loaded LNP by in vivo imaging, spleen; settings: Balb/c mice, 6 hours; for Fluc Activity in spleen: FlucmRNA-loaded LNP i.v. 0.1 mg mRNA/kg; for Fluc activity in the spleen, compared with CL15F6: 0.1 mg mRNA/kg, versus LNP comprising CL15F6 (Table 7)
# Procedure, shortened: as §1
# [3] = Average particle size (ζ-Average) and PDI by dynamic light scattering (Zetasizer Nano ZSP); assay type: physicochemical
# Procedure, shortened: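 Lipid nanoparticles dispersed in PBS(−) were sized by dynamic light scattering, giving the ζ-Average diameter and polydispersity index (PDI).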
# [4] = F7siRNA-loaded LNP, 50:10:38.5:1.5, N/P ratio 6
# [5] = FlucmRNA-loaded LNP, 50:10:38.5:1.5
# [6] = FlucmRNA-loaded LNP, lipid:DSPC:cholesterol:DMG-PEG2K 50:10:38.5:1.5
SMILES,% siRNA encapsulation [1],% mRNA encapsulation [1],"period for which quality remained good, −80° C. [2]","period for which quality remained good, 5° C. [2]","period for which quality remained good, 25° C. [2]","period for which quality remained good, 40° C. (weeks) [2]","PDI [3, 4]","ζ-Average (nm) [3, 4]","PDI [3, 5]","ζ-Average (nm) [3, 6]","knockdown activity, compared with MC3 (F7)",F7 enzyme activity (Ratio using MC3 as 1) (F7),"Fluc activity in the liver, compared with CL15F6 (liver)",Fluc Activity in liver (liver),Fluc Activity in spleen (spleen),"Fluc activity in the spleen, compared with CL15F6 (spleen)","quality at production (storage stability criteria) ([2]; criteria: PDI 0.2 or less, encapsulation 80% or more)"
CCCCCCCCCC(CCCCCC)C(=O)OCCCCCCC(O)(CCCCCCOC(=O)C(CCCCCC)CCCCCCCCC)CCCCOC(=O)C1CCN(C)CC1 (stereo not drawn) [CL15F 11-6],100.3%,99.75%,1 week,5 weeks,5 weeks,5 weeks,0.025,101.2 nm,0.007,106.50 nm,higher knockdown activity,0.81,higher Fluc activity,9.09E+06 Avg Radiance [p/s/cm2/sr],8.19E+06 Avg Radiance [p/s/cm2/sr],higher Fluc activity,–
CCCCCCCCCC(CCCCCCC)C(=O)OCCCCCCC(O)(CCCCCCOC(=O)C(CCCCCCC)CCCCCCCCC)CCCCOC(=O)C1CCN(C)CC1 (stereo not drawn) [CL15F 11-7],100.6%,99.86%,1 week,5 weeks,5 weeks,5 weeks,0.049,102.5 nm,0.002,102.50 nm,higher knockdown activity,0.85,higher Fluc activity,1.10E+07 Avg Radiance [p/s/cm2/sr],7.13E+06 Avg Radiance [p/s/cm2/sr],higher Fluc activity,–
CCCCCCCCCC(CCCCCCCCC)C(=O)OCCCCCCC(O)(CCCCCCOC(=O)C(CCCCCCCCC)CCCCCCCCC)CCCCOC(=O)C1CCN(C)CC1 [CL15F 11-9],101.1%,99.78%,1 week,5 weeks,5 weeks,5 weeks,0.029,104.9 nm,0.023,99.31 nm,higher knockdown activity,0.50,higher Fluc activity,3.66E+07 Avg Radiance [p/s/cm2/sr],7.55E+06 Avg Radiance [p/s/cm2/sr],higher Fluc activity,–
CCCCCCCCCCC(CCCC)C(=O)OCCCCCCC(O)(CCCCCCOC(=O)C(CCCC)CCCCCCCCCC)CCCCOC(=O)C1CCN(C)CC1 (stereo not drawn) [CL15F 12-4],100.2%,99.7%,1 week,5 weeks,5 weeks,5 weeks,0.065,113.2 nm,0.009,116.60 nm,higher knockdown activity,0.81,–,2.87E+06 Avg Radiance [p/s/cm2/sr],5.10E+06 Avg Radiance [p/s/cm2/sr],–,–
CCCCCCCCCCC(CCCCCCCCCC)C(=O)OCCCCCCC(O)(CCCCCCOC(=O)C(CCCCCCCCCC)CCCCCCCCCC)CCCCOC(=O)C1CCN(C)CC1 [CL15F 12-10],100.5%,99.78%,1 week,5 weeks,5 weeks,5 weeks,0.014,100.2 nm,0.030,97.59 nm,higher knockdown activity,0.51,higher Fluc activity,4.33E+07 Avg Radiance [p/s/cm2/sr],5.58E+06 Avg Radiance [p/s/cm2/sr],–,–
CCCCCCCCCCCC(CCC)C(=O)OCCCCCCC(O)(CCCCCCOC(=O)C(CCC)CCCCCCCCCCC)CCCCOC(=O)C1CCN(C)CC1 (stereo not drawn) [CL15F 13-3],100.3%,98.62%,0 week,5 weeks,5 weeks,5 weeks,0.081,126.0 nm,0.048,142.90 nm,–,1.11,–,3.51E+06 Avg Radiance [p/s/cm2/sr],6.11E+06 Avg Radiance [p/s/cm2/sr],higher Fluc activity,–

# Now from value to compound, other results behind:
% siRNA encapsulation [1],% mRNA encapsulation [1],"period for which quality remained good, −80° C. [2]","period for which quality remained good, 5° C. [2]","period for which quality remained good, 25° C. [2]","period for which quality remained good, 40° C. (weeks) [2]","PDI [3, 4]","ζ-Average (nm) [3, 4]","PDI [3, 5]","ζ-Average (nm) [3, 6]",SMILES,"knockdown activity, compared with MC3 (F7)",F7 enzyme activity (Ratio using MC3 as 1) (F7),"Fluc activity in the liver, compared with CL15F6 (liver)",Fluc Activity in liver (liver),Fluc Activity in spleen (spleen),"Fluc activity in the spleen, compared with CL15F6 (spleen)","quality at production (storage stability criteria) ([2]; criteria: PDI 0.2 or less, encapsulation 80% or more)"
100.3%,99.8%,1 week,5 weeks,5 weeks,5 weeks,0.017,109.6 nm,0.010,108.90 nm,CCCCCCCCCC(CCCCC)C(=O)OCCCCCCC(O)(CCCCCCOC(=O)C(CCCCC)CCCCCCCCC)CCCCOC(=O)C1CCN(C)CC1 (stereo not drawn) [CL15F 11-5],higher knockdown activity,0.78,higher Fluc activity,9.38E+06 Avg Radiance [p/s/cm2/sr],5.01E+06 Avg Radiance [p/s/cm2/sr],–,–
100.2%,95.70%,1 week,5 weeks,5 weeks,5 weeks,0.13,143.9 nm,0.117,158.90 nm,CCCCCCCCCCCCC(CC)C(=O)OCCCCCCC(O)(CCCCCCOC(=O)C(CC)CCCCCCCCCCCC)CCCCOC(=O)C1CCN(C)CC1 (stereo not drawn) [CL15F 14-2],–,1.82,higher Fluc activity,1.03E+07 Avg Radiance [p/s/cm2/sr],7.58E+06 Avg Radiance [p/s/cm2/sr],higher Fluc activity,–
101.0%,100.1%,–,–,–,–,0.238,109.6 nm,0.234,195.90 nm,CCCCCCCCCCCCCCCC(=O)OCCCCCCC(O)(CCCCCCOC(=O)CCCCCCCCCCCCCCC)CCCCOC(=O)C1CCN(C)CC1 [CL15F 16-0],–,1.48,–,1.97E+05 Avg Radiance [p/s/cm2/sr],4.59E+05 Avg Radiance [p/s/cm2/sr],–,Does not meet the criteria for “good” at production
99.0%,94.0%,0 week,0 weeks,0 weeks,0 weeks,0.088,122.5 nm,0.182,187.70 nm,CCCCCCCCCCCCCCC(C)C(=O)OCCCCCCC(O)(CCCCCCOC(=O)C(C)CCCCCCCCCCCCCC)CCCCOC(=O)C1CCN(C)CC1 (stereo not drawn) [CL15F 16-1],–,1.37,–,2.18E+05 Avg Radiance [p/s/cm2/sr],1.27E+06 Avg Radiance [p/s/cm2/sr],–,–
